Source: ChEMBL document CHEMBL5120967, “Development of an Orally Active Small-Molecule Inhibitor of Receptor Activator of Nuclear Factor-κB Ligand” (J Med Chem, 2022)

How the values were obtained:
[1] = Anti-osteoporosis activity C57/BL6 mouse bone marrow macrophage cells assessed as inhibition of RANKL-induced osteoclastogenesis at 1 uM measured after 5 to 6 days in presence of M-CSF and RNKL by TRAP staining microscopic analysis; type: functional, BMDM; design: scale not given: the % may be the effect or the level left; conditions: time 5-6 day
[2] = Anti-osteoporosis activity C57/BL6 mouse bone marrow macrophage cells assessed as inhibition of RANKL-induced osteoclastogenesis at 0.1 uM measured after 5 to 6 days in presence of M-CSF and RNKL by TRAP staining microscopic analysis; type: functional, BMDM; design: scale not given: the % may be the effect or the level left; conditions: time 5-6 day
BMDM = experiment: Cytotoxicity against C57/BL6 mouse bone marrow macrophage cells assessed as reduction in cell viability at 10 uM incubated for 3 days by CCK8 assay; type: toxicity, cell-based; conditions: 72 h, time 3 day
[3] = AUC(0 to t) in OVX-induced C57/BL6 mouse model at 3 mg/kg, iv; type: ADME, organism-based; design: dose 3 mg/kg, route iv; conditions: female, in vivo
[4] = Half life in OVX-induced C57/BL6 mouse model at 3 mg/kg, iv; type: ADME, organism-based; conditions: female, in vivo
[5] = Clearance in OVX-induced C57/BL6 mouse model at 3 mg/kg, iv; type: ADME, organism-based; conditions: female, in vivo
[6] = Oral bioavailability in OVX-induced C57/BL6 mouse model; type: ADME, organism-based; conditions: female, in vivo
[7] = AUC(0 to t) in OVX-induced C57/BL6 mouse model at 5 mg/kg, po; type: ADME, organism-based; design: dose 5 mg/kg, route po; conditions: female, in vivo
[8] = Cmax in OVX-induced C57/BL6 mouse model at 5 mg/kg, po; type: ADME, organism-based; design: dose 5 mg/kg, route po; conditions: female, in vivo
[9] = Half life in OVX-induced C57/BL6 mouse model at 5 mg/kg, po; type: ADME, organism-based; conditions: female, in vivo

SMILES	Activity [1] [%]	Activity [2] [%]	Cell viability (BMDM) [%]	other results
COc1ccc(CCc2nc(C(=O)Nc3c(C)cccc3C)cc3c2[nH]c2ccccc23)cc1	75.7	29.3	> 100	
Cc1cccc(C)c1NC(=O)c1cc2c([nH]c3ccccc32)c(CCc2ccc(F)cc2)n1	65.2	28.2	> 100	
O=C(NC1CCCCC1)c1cc2c([nH]c3ccccc32)c(CCc2ccccc2)n1	0		> 100	
Cc1cccc(C)c1NC(=O)c1cc2c([nH]c3ccccc32)c(CCc2ccc(C#N)cc2)n1	79.5	16.5	> 100	
Cc1cccc(C)c1NC(=O)c1cc2c([nH]c3ccccc32)c(CCc2cc(F)cc(F)c2)n1	35.2		> 100	
Cc1cccc(C)c1NC(=O)c1cc2c([nH]c3ccccc32)c(CCc2ccc(P(C)(C)=O)cc2)n1	81.6	32.6	> 100	
O=C(c1cc2c([nH]c3ccccc32)c(CCc2ccccc2)n1)N1CCOCC1	32.6		> 100	
O=C(Nc1ncc[nH]1)c1cc2c([nH]c3ccccc32)c(CCc2ccccc2)n1	78.9	10.7	> 100	
Cc1cc2occ(CN(C)CCN(C)Cc3cn(-c4cccc(C(F)(F)F)c4)c4ccccc34)c(=O)c2cc1C	56.1	18.4	3.8	
CC(=O)Nc1ccc(CCc2nc(C(=O)Nc3c(C)cccc3C)cc3c2[nH]c2ccccc23)cc1	55	19	> 100	
Cc1cccc(C)c1NC(=O)c1cc2c([nH]c3ccccc32)c(CCc2ccc(N)cc2)n1	70.3	11.4	> 100	
COc1ccccc1CCc1nc(C(=O)Nc2c(C)cccc2C)cc2c1[nH]c1ccccc12	83	33.6	> 100	
Cc1cccc(C)c1NC(=O)c1cc2c([nH]c3ccccc32)c(CNc2ccccc2)n1			67.6	
Cc1cccc(C)c1NC(=O)c1cc2c([nH]c3ccccc32)c(CCc2ccc(N(C)C)cc2)n1	54.7	36.7	> 100	
O=C(NCc1ccccc1)c1cc2c([nH]c3ccccc32)c(CCc2ccccc2)n1	0		> 100	
O=C(Nc1cccnc1)c1cc2c([nH]c3ccccc32)c(CCc2ccccc2)n1	18.3		> 100	
CNc1ccc(CCc2nc(C(=O)Nc3c(C)cccc3C)cc3c2[nH]c2ccccc23)cc1	37.9		> 100	
Cc1cccc(C)c1NC(=O)c1cc2c([nH]c3ccccc32)c(CCc2ccc(C(F)(F)F)cc2)n1	72.5	19.5	> 100	
O=C(Nc1ccccn1)c1cc2c([nH]c3ccccc32)c(CCc2ccccc2)n1	36.1		> 100	
Cc1cccc(C)c1NC(=O)c1cc2c([nH]c3ccccc32)c(CCc2cccc(O)c2)n1	0		> 100	
Cc1cccc(C)c1NC(=O)c1cc2c([nH]c3ccccc32)c(CCc2ccc(O)cc2)n1	23.8		76.9	

SMILES	Activity [1] [%]	Activity [2] [%]	Cell viability (BMDM) [%]	other results
Cc1cccc(C)c1NC(=O)c1cc2c([nH]c3ccccc32)c(CCc2cccc(F)c2)n1	54.7	21	> 100	
COC(=O)c1ccc(CCc2nc(C(=O)Nc3c(C)cccc3C)cc3c2[nH]c2ccccc23)cc1	77.6	28.5	99.6	
Cc1cccc(C)c1NC(=O)c1cc2c([nH]c3ccccc32)c(CCc2ccc(Cl)cc2)n1	52.5	11.3	> 100	
Cl.O=C(NC1CCNCC1)c1cc2c([nH]c3ccccc32)c(CCc2ccccc2)n1	0		47.9	
Cc1cccc(C)c1NC(=O)c1cc2c([nH]c3ccccc32)c(CCc2ccncc2)n1	79.1	29.8	> 100	
Cn1cc(NC(=O)c2cc3c([nH]c4ccccc43)c(CCc3ccccc3)n2)cn1	0		> 100	
O=C(Nc1ccncc1)c1cc2c([nH]c3ccccc32)c(CCc2ccccc2)n1	56.6	18.4	> 100	
Cc1cccc(C)c1NC(=O)c1cc2c([nH]c3ccccc32)c(CCc2ccccc2F)n1	66.7	26.7	> 100	
Cc1cccc(C)c1NC(=O)c1cc2c([nH]c3ccccc32)c(CCc2nccs2)n1			71	
O=C(Nc1nccs1)c1cc2c([nH]c3ccccc32)c(CCc2ccccc2)n1	27		> 100	
Cc1cccc(C)c1NC(=O)c1cc2c([nH]c3ccccc32)c(CCc2ccc(C(=O)O)cc2)n1	85.9	37.6	> 100	
O=C(NC1CCOCC1)c1cc2c([nH]c3ccccc32)c(CCc2ccccc2)n1	47.9		> 100	
Cc1cccc(C)c1NC(=O)c1cc2c([nH]c3ccccc32)c(CCc2ncc[nH]2)n1	28.6		> 100	
Cc1cccc(C)c1NC(=O)C(Cc1c[nH]c2ccccc12)NCCCc1ccccc1 (centres undefined)	32		> 100	AUC(0-t) [3]: 984 ng·h/mL; half-life [4]: 1.2 h; clearance [5]: 51 mL/min/kg; bioavailability [6]: 2.4%; AUC(0-t) [7]: 38.8 ng·h/mL; Cmax [8]: 10 ng/mL; half-life [9]: 0.9 h
Cc1cccc(C)c1NC(=O)c1cc2c([nH]c3ccccc32)c(CCc2ccccc2O)n1	36		87.1	
O=C(NC1CC1)c1cc2c([nH]c3ccccc32)c(CCc2ccccc2)n1	0		> 100	
COc1cccc(CCc2nc(C(=O)Nc3c(C)cccc3C)cc3c2[nH]c2ccccc23)c1	82.3	27.1	> 100	
O=C(Nc1cc[nH]n1)c1cc2c([nH]c3ccccc32)c(CCc2ccccc2)n1	39.9		> 100	
Cc1cccc(C)c1NC(=O)c1cc2c([nH]c3ccccc32)c(CCC2CCCCC2)n1	52.8	9.1	> 100	
Cc1ccc(CCc2nc(C(=O)Nc3c(C)cccc3C)cc3c2[nH]c2ccccc23)cc1	77.6	16.2	> 100	
Cc1cccc(C)c1NC(=O)c1cc2c([nH]c3ccccc32)c(CCc2cccnc2)n1			51.2	
